Source: patent US12679837B2, “Aminopyrimidine compound as CDK2/4/6 triple inhibitor” (CISEN PHARMACEUTICAL CO., LTD, priority 2019, dated 2026)

Key:
[1] = system: MDA-MB-468 cells; test: MDA-MB-468 cell activity test (CellTiter-Glo); assay type: cell-based
Method: Experimental materials: L15 medium, fetal bovine serum, penicillin/streptomycin antibiotics were purchased from Vicente. CellTiter-Glo (chemiluminescence detection reagent for cell viability) reagent was purchased from Promega. The MDA-MB-468 cell line was purchased from Cobioer Biosciences Co., Ltd. Nivo Multilabel Analyzer (PerkinElmer).
Experimental method: MDA-MB-468 cells were seeded in a white 96-well plate, 80 μL of cell suspension per well, which contained 1000 MDA-MB-468 cells. The cell plate was incubated overnight in a carbon dioxide incubator. The compounds to be tested were diluted 5-fold to the 9th concentration with a row gun, that is, from 10 mM to 25.6 nM, and a double-replicate well experiment was set up. 78 μL of medium was added to the middle plate, and then transferred 2 μL per well of the gradient diluted compound to the middle plate according to the corresponding position, mixed well and transferred 20 μL per well to the cell plate. The concentration of compound transferred to the cell plate ranged from 50 μM to 0.128 nM. The cell plate was incubated in a carbon dioxide incubator for 7 days. Another cell plate was prepared, and the signal value was read as the maximum value (Max value in the equation below) on the day of drug addition to participate in data analysis. 25 μL of chemiluminescence detection reagent for cell viability was added to each well of the cell plate, and incubated at room temperature for 10 minutes to stabilize the luminescence signal. A multi-label analyzer was used for reading.
(§1) Data analysis: Using the equation (Sample−Min)/(Max−Min)×100% to convert the original data into inhibition rate, the IC50 value can be obtained by curve fitting with four parameters (obtained by the mode of log(inhibitor) vs. response—Variable slope in GraphPad Prism).

[2] = target: T1, CDK4/CyclinD1 (Homo sapiens, UniProt P11802); test: CDK4/CyclinD1 kinase activity test (LANCE Ultra TR-FRET); assay type: biochemical; conditions: 350 μM ATP, 25° C., 120 minutes; read-out: Enzyme activity data (IC50) CDK4/cyclinD1
T1 construct: purchased Invitrogen
T1 sequence (P11802 whole entry): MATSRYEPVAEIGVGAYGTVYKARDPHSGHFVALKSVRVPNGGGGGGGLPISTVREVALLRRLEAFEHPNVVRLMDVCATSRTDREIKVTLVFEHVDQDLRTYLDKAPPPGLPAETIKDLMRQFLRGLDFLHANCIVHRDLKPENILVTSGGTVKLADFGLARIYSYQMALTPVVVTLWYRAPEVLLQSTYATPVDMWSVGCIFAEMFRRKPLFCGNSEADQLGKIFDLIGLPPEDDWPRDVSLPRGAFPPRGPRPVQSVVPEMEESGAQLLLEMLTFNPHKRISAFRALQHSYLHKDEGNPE
T1 sequence (P24385 whole entry partner): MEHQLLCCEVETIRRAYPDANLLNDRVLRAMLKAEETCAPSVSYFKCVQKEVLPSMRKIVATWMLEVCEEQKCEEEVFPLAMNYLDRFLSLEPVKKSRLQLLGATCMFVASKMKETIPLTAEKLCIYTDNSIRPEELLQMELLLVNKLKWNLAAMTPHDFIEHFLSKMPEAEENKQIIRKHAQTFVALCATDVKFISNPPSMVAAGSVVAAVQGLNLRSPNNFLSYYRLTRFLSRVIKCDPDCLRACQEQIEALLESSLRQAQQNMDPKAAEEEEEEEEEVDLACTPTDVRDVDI
Method: Experimental materials: CDK4/CyclinD1 kinase was purchased from Invitrogen, reaction substrate LANCE Ultra ULight™-4E-BP-1 (Thr37146) Peptide and EU-ANTI-P-4EBP1 (THR37/46) were purchased from PerkinElmer. Nivo Multilabel Analyzer (PerkinElmer).
Experimental method: preparation of kinase buffer: The components of the buffer include: 50 mM of hydroxyethylpiperazine […] solution with pH 7.5, 1 mM of EDTA, 10 mM of magnesium chloride, 0.01% lauryl polyoxyethylene ether (Brij-35), 2 mM of enzyme dithiothreitol, kinase buffer dilution enzyme, substrate LANCE Ultra ULight™-4E-BP-1 (Thr37146) Peptide, adenosine triphosphate and inhibitor. […] The reaction system was continued at 25° C. for 120 minutes. After the reaction was complete, a mixture of 5 μL of EDTA and 2× LANCE™ Detection Buffer (1:1) was added to each well, and reacted at 25° C. for 5 minutes, after the reaction was complete, 5 μL of LANCE Ultra Eu-anti-P-4E-BP1(Thr37MS) (4 nM) was added to each well, and reacted at 25° C. for 60 minutes, the reaction signal was detected by Nivo instrument according to the principle of time-resolved fluorescence resonance energy transfer.
Table 1 provides the enzymatic inhibitory activities of the compounds of the present invention on CDK2/CyclinA2, CDK2/CyclinE1, CDK4/CyclinD1, CDK6/CyclinD1, CDK9/CyclinT1.

[3] = system: HCC1806 cells; test: HCC1806 cell activity test (CyQUANT); assay type: cell-based; conditions: Homo sapiens, 168 h, 7 days, read-out: Antiproliferative activity (IC50) HCC1806
Method: Experimental materials: RPMI-1640 medium, fetal bovine serum, penicillin/streptomycin antibiotics were purchased from Vicente. CyQUANT Cell Proliferation Assays (Cell proliferation assay kit) reagents were purchased from ThermoFisher. The HCC1806 cell line was purchased from Cobioer Biosciences Co., Ltd. Nivo Multilabel Analyzer (PerkinElmer).
Experimental method: HCC1806 cells were seeded in a white 96-well plate, 80 μL of cell suspension per well, which contained 3000 HCC1806 cells. The cell plate was incubated overnight in a carbon dioxide incubator. The compounds to be tested were diluted 5-fold to the 9th concentration with a row gun, that is, from 10 mM to 25.6 nM, and a double-replicate well experiment was set up. 78 μL of medium was added to the middle plate, and then transferred 2 μL per well of the gradient diluted compound to the middle plate according to the corresponding position, mixed well and transferred 20 μL per well to the cell plate. […] After reaching the incubation time, the cell supernatant was removed, and the cell plate was placed in a −80° C. refrigerator for 1 hour, after which 100 μL of Cyquant reagent was added to each well, and a multi-label analyzer was used for reading. Another cell plate was prepared, and the signal value was read as the maximum value (Max value in the equation below) on the day of drug addition to participate in data analysis. […]

[4] = target: T2, CDK2/CyclinE1 (Homo sapiens, UniProt P24941); test: CDK2/CyclinE1 kinase activity test (ADP-Glo); assay type: biochemical; conditions: 150 μM ATP, 25° C., 60 minutes; read-out: Enzyme activity data (IC50) CDK2/CyclinE1
T2 construct: purchased Promega
Method: Nivo Multilabel Analyzer (PerkinElmer).
Experimental method: Kinase buffer dilution enzyme in the kit, substrate, adenosine triphosphate and inhibitor were used. The compounds to be tested were diluted 5-fold to the 8th concentration with a row gun, that is, from 50 μM to 0.65 nM, the concentration of DMSO was 5%, and a double-replicate well experiment was set up. […] The reaction system was placed at 25° C. and reacted for 60 minutes. After the reaction was complete, 5 μL of ADP-Glo reagent was added to each well, and the reaction was continued at 25° C. for 40 minutes. At the end of the reaction, 10 μL of kinase detection reagent was added to each well. After the reaction was continued at 25° C. for 30 minutes, the chemiluminescence was read by a multi-label analyzer with an integration time of 0.5 seconds.
as §1, with “Using” for “Data analysis: Using”, “Prism). Table 1 provides the enzymatic inhibitory activities of the compounds of the present invention on CDK2/CyclinA2, CDK2/CyclinE1, CDK4/CyclinD1, CDK6/CyclinD1, CDK9/CyclinT1.” for “Prism).”

- IC50 ([1]; Homo sapiens, 168 h, MDA-MB-468 cells (Rb-negative), 7 days, read-out: Antiproliferative activity (IC50) MDA-MB-468): 640 nM
- IC50 [2]: 5.9 nM
- IC50 [3]: 155 nM
- IC50 [4]: 1.19 nM
SMILES: C[C@@]1(O)CCC[C@H]1N1C(=O)CCc2cnc(NC3CCN(S(C)(=O)=O)CC3)nc21 [Compound 1A]
- Selectivity ratio(MDA-MB-468/HCC1806) ([1]; ratio of antiproliferative IC50, MDA-MB-468/HCC1806): 4.1
